Source: PubChem BioAssay (NCI)
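Method: 48-hour compound exposure of cells in 96-well plates, five concentrations, linear interpolation of endpoints. GI50 marks 50% less growth. TGI marks complete inhibition of growth.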

What was measured:
Experiment in all cases: NCI-60 cell line screen, 48 h
CAKI-1 renal = system: CAKI-1 renal
HCC-2998 colon = system: HCC-2998 colon
HCT-15 colon = system: HCT-15 colon
MDA-MB-435 = system: MDA-MB-435
MOLT-4 leukemia = system: MOLT-4 leukemia
SF-268 CNS = system: SF-268 CNS
SK-OV-3 ovarian = system: SK-OV-3 ovarian
SR leukemia = system: SR leukemia
TK-10 renal = system: TK-10 renal
U251 CNS = system: U251 CNS

| Structure (SMILES) | GI50 (CAKI-1 renal) [µM] | TGI (CAKI-1 renal) [µM] | GI50 (HCC-2998 colon) [µM] | TGI (HCC-2998 colon) [µM] | GI50 (HCT-15 colon) [µM] | TGI (HCT-15 colon) [µM] | GI50 (MDA-MB-435) [µM] | TGI (MDA-MB-435) [µM] | GI50 (MOLT-4 leukemia) [µM] | TGI (MOLT-4 leukemia) [µM] | GI50 (SF-268 CNS) [µM] | TGI (SF-268 CNS) [µM] | GI50 (SK-OV-3 ovarian) [µM] | TGI (SK-OV-3 ovarian) [µM] | GI50 (SR leukemia) [µM] | TGI (SR leukemia) [µM] | GI50 (TK-10 renal) [µM] | TGI (TK-10 renal) [µM] | GI50 (U251 CNS) [µM] | TGI (U251 CNS) [µM] |
| --- | --- | --- | --- | --- | --- | --- | --- | --- | --- | --- | --- | --- | --- | --- | --- | --- | --- | --- | --- | --- |
| Cc1nc2cnc3cc(F)c(-c4ccc(Oc5ncccn5)cc4Cl)cc3c2n1[C@H]1CCN(C(=O)CO)C[C@@H]1F | 0.558 | 16.4 | 0.261 | 15.3 | 3.6 | > 100 | 0.0692 | > 60.7 | 0.792 | 30 | 6.12 | > 100 | 3.93 | > 100 | 13.3 | 54.4 | 1.76 | 36 | 5.91 | > 100 |
| CC1=CCC(OC(=O)C(C)(C)CCC(O)(C(=O)OC2(C(C)C)CCC3(C)OC3C2)C(C)C)(C(C)C)CC1 (configuration not stated) | 0.255 | 1.05 | 2.13 | 7.33 | 0.148 | 0.688 | 0.355 | 1.04 | 0.131 | 4.99 | 0.603 | 1.46 | 0.692 | 5.81 | 0.266 | 1.51 | 0.532 | 1.43 | 0.363 | 1.12 |
| COc1ccc(-c2cnnn2-c2cc(OC)c3c(c2)OCO3)cc1 | 0.118 | > 100 | 0.307 |  | 0.0481 | > 100 | 0.0202 | 0.0512 | 0.266 | > 27.2 | 0.775 | > 100 | 0.348 | > 100 | 0.0466 | > 51.7 | 25 | > 100 | 0.231 | > 100 |
| N=c1c2c(-c3ccccc3)c(-c3ccccc3)n(Cc3ccccc3)c2ncn1CCCO | 0.692 | 6.57 | 1.43 | 7.07 | 0.696 | 15.5 | 1.61 | 16.8 | 0.743 | 11.4 | 0.894 | 20.8 | 4.18 | 17.9 | 0.268 | 6.4 | 5.37 | 19.3 | 0.704 | 13.3 |
| CCc1cccc2c3c(sc12)C(c1ccc(Cl)cc1)C(C#N)=C(N)O3 (configuration not stated) | 0.403 | 14 | 1.32 | 7.42 | 0.418 | 9.59 | 0.196 | 0.463 | 0.59 | 27.6 | 0.933 | 22.2 | 1.14 | 29.8 | 0.414 | 31.8 | 3.18 | 15.4 | 0.496 | 5.26 |
| C=C(C)[C@@H]1CC[C@]2(C(=O)NCCNCCNCCN)CC[C@]3(C)[C@H](CC[C@@H]4[C@@]5(C)CC[C@H](O)C(C)(C)[C@@H]5CC[C@]43C)[C@@H]12 | 5.92 | 20.1 | 14.1 | 29.5 | 11.5 | 26.1 | 13.4 | 27.2 | 11.5 | > 100 | 13.5 | 32.3 | 17.5 | 36.9 | 6.76 | > 100 | 15.8 | 31.3 | 12.7 | 27.1 |
| COc1ccc(-c2cc(-c3ccccc3)nc(N3CCN(CCNc4ccnc5cc(Cl)ccc45)CC3)n2)cc1 | 2.97 | 12.1 | 1.46 | 3.02 | 1.4 | 3.14 | 1.8 | 3.31 |  |  | 1.75 | 3.81 | 10.3 | 22 | 0.31 | > 100 | 2.19 | 4.88 | 1.56 | 3.45 |
| COC1(O)C(=O)c2ccccc2OC1(OC)c1ccccc1 (configuration not stated) |  | > 100 |  | > 100 |  | > 100 |  | > 100 |  | > 100 |  | > 100 |  |  |  | > 100 |  | > 100 |  | > 100 |
| CN1CCN(c2nc(NCCCCNc3ccnc4cc(Cl)ccc34)c3ccccc3n2)CC1 |  |  | 2.59 | 7.12 | 2.9 | 14 | 1.97 | 4.25 | 3.08 | 20 | 10.7 | 33.9 | 18 | 41.2 | 2.29 | 6.27 | 1.85 | 4.69 | 3.27 | 10.1 |
| O=C1C=C[C@@]23C[C@@H](Nc4c(O)c5c6c(c42)=NCCC=6C=N5)SC3=C1 |  | 32.1 | 4.39 | 13.6 | 2.85 | 7.94 |  | 2.98 |  |  | 3.04 | 10.1 |  | 32.8 | 2.26 | 6.14 |  | 27.7 | 2.72 | 7.92 |
| CN(CC(=O)O)c1ccc(/C=C/c2ccnc3ccccc23)cc1 |  | 66.1 |  | 53 |  | > 100 |  | 51.1 |  |  |  | 61.1 |  | 91.6 |  | 33.7 |  | 47.7 |  | 75.2 |
